Source: paper PMC5549732 (PLoS ONE, 2017)
Where “and” joins values, the source holds several entries; their conditions need not be identical. Equal entries are not always repeated.

Legend:
HCT116-luc2 tumors [1] = assay: BLI of firefly luciferase activity (tumor viability) in HCT116-luc2 xenografts; format: in vivo, nu/nu mice
Procedure: Optical BLI and FLI were performed using the IVIS® SpectrumCT, which is capable of imaging multiple mice simultaneously (up to 5 mice). To generate BLI signals, the tumor-bearing mice received IP injections of 75 mg/kg of D-luciferin (potassium salt, PerkinElmer Inc.) and were placed into the imager for sequential image acquisitions (settings: FOV = D, Binning = 16, F/Stop = 1, Open filter, 2 min delay between each acquisition) under 1–2% of isoflurane anesthesia. Maximal bioluminescence output for each tumor was determined by sequentially acquiring a BLI image every two minutes for up to 16 min. Typical peak imaging time for the HCT116-luc2 subcutaneous model was approximately 10 min, and BLI images are represented in units of radiance (p/sec/cm^2/sr).
(§1) BLI and FLI images were analyzed using the Living Image software (version 4.4 for Windows, PerkinElmer Inc.). Tumor BLI and FLI signals were quantified using the region of interest (ROI) tools, and the total optical signals were calculated as total flux (photon counts/sec) and total radiant efficiency [(p/s)/(μW/cm^2)], respectively. For greater accuracy, all FLI data was corrected for background levels based on specific measurements as described in the figure legends. All PET images were represented as standard uptake value (SUV) using the VivoQuant 3.0 software and tumor-specific ^18F-FDG uptake levels were also calculated using SUVtotal. […] For each treatment group, we calculated relative tracer uptake in tumors using the day 0 uptake level as 100%. For statistical analysis, we used the GraphPad Prism software (version 6.0 for Windows, La Jolla, CA). Data are presented as the mean ± standard error of the mean (s.e.m.). Statistical analysis was conducted using ANOVA or Student’s t-test, as indicated. P < 0.05 was the cutoff for being considered statistically significant.

[2] = tested on: HCT116-luc2 subcutaneous xenografts; assay: Caliper tumor volume measurement of subcutaneous HCT116-luc2 xenografts
Procedure: Specific pathogen-free nu/nu (Crl:NU-Fox1^nu, 6–8 weeks old) and CD-1 (Crl:CD1[ICR]) mice were purchased from Charles River Laboratories (Wilmington, MA). Mice were housed in a controlled environment (72°F; 12:12-h light-dark cycle) under specific-pathogen free conditions with water and food provided ad libitum. To induce tumor growth, 2.5 x10^6 of HCT116-luc2 cells were subcutaneously injected on the right flank of a nude mouse. Two weeks after cancer cell inoculation, when the tumor volume reached an appropriate size (measured by caliper and calculated by the formula 0.5 x length x width^2), animals were randomized into vehicle or different sorafenib treatment groups as indicated. Sorafenib was prepared in water containing 6.2% of ethanol and 6.2% of Kolliphor EL (Sigma-Aldrich, St. Louis, MO). The treatment was given daily 5 times a week by oral gavage at 15 μl per gram of body weight.
We initiated the treatment when the average HCT116-luc2 tumor size for each group reached ~180 mm^3 in volume (day 0). The drug was given daily via oral gavage at a dosage of 120 mg/kg from days 0 to 4 and from days 7 to 9.
In this set of studies (Fig 2), treatments were initiated when the average group HCT116-luc2 tumor size reached ~100 mm^3 in volume. […] The drug was given daily, from days 0 to 4 and from days 7 to 11. In addition to the conventional tumor volume measurements by caliper, we performed BLI of firefly luciferase activity to access tumor viability on the days indicated.

HCT116-luc2 tumors [3] = assay: H&E histology of tumor tissue sections; format: in vivo, nu/nu mice; conditions: sorafenib 120 mg/kg, days 0-4 and 7-9; day 9
Procedure: Tumor tissues were fixed in 10% neutral buffered formalin, followed by routine process and embedment in paraffin. Tissue sections (5 μm) were prepared on electrostatically charged glass slides and then baked at 60°C overnight. After washing the slides with three washes in xylene, the slides were rehydrated through a series of graded ethanol (100%, 90% and 70%) to water. The prepared slides were then stained with hematoxylin and eosin.
Fig 1 Sorafenib, a tyrosine kinase inhibitor, effectively suppresses HCT116-luc2 tumor growth. Nude mice bearing subcutaneous tumors on the flanks were treated with vehicle or with 120 mg/kg of sorafenib on days 0–4 and days 7–9 via oral gavage. A: Longitudinal tumor volume measurements of subcutaneous HCT116-luc2 tumors (***p < 0.0001, n = 5 per group, two-way ANOVA, mean and s.e.m., representative of three studies) B: H&E staining of tumor tissue sections harvested from the vehicle and sorafenib-treated (120 mg/kg) tumors on day 9. […] Bar: 50 μm.

HCT116-luc2 tumors [4] = assay: TfV-750 fluorescence imaging (FLI) of tumor transferrin receptor expression; format: in vivo, nu/nu mice
Procedure: In addition, the imager is equipped with suitable excitation and emission filter sets for FLI of BRS-680 and TfV-750. Tumor metabolic activities were visualized by IV injection of a mixture of these two NIR imaging agents (2 nmol/mouse each in a total volume of 100 μl of PBS). The agents were injected 16 h prior to FLI imaging in order to allow optimal probe uptake and clearance of unbound probe. For the longitudinal FLI imaging studies, separate cohorts were used for FLI acquisitions on days 1 (n = 10, imaging agents injected on day 0), 2 (n = 10, injected on day 1), and 3 (n = 5, injected on day 2) due to the extended time required for probe washout. […]
(§2) BLI and FLI images were analyzed using the Living Image software (version 4.4 for Windows, PerkinElmer Inc.). Tumor BLI and FLI signals were quantified using the region of interest (ROI) tools, and the total optical signals were calculated as total flux (photon counts/sec) and total radiant efficiency [(p/s)/(μW/cm^2)], respectively. […] All PET images were represented as standard uptake value (SUV) using the VivoQuant 3.0 software and tumor-specific ^18F-FDG uptake levels were also calculated using SUVtotal. […] For each treatment group, we calculated relative tracer uptake in tumors using the day 0 uptake level as 100%. […]

HCT116-luc2 tumors [5] = assay: 18F-FDG microPET imaging of tumor glucose uptake; format: in vivo, nu/nu mice; conditions: sorafenib 40 mg/kg daily oral gavage; days 2 and 3 post-treatment; n = 5 per group
Procedure: We also performed microPET imaging using ^18F-FDG as a tracer for detecting changes in tumor glucose uptake with or without treatment. Images were acquired using the G8 PET/CT system (PerkinElmer Inc.). For each mouse, 100 μCi of ^18F-FDG (PETNET Solutions Inc., Malvern PA) was injected intravenously (IV), and all mice were kept warm and maintained under 1.5% isoflurane gas anesthesia for 1 hour for tracer uptake. Subsequently, the mice were imaged with a standard 10 min static F-18 imaging protocol. The G8 PET/CT system automatically performed image reconstruction after acquisition and provided 3D tomography imaging in the DICOM format. We were able to image the same cohorts (n = 5) throughout the course of study since ^18F has a relative short decay half-life (~110 min). […]
as §2

HCT116-luc2 tumors [6] = assay: BRS-680 fluorescence imaging (FLI) of tumor bombesin receptor expression; format: in vivo, nu/nu mice; conditions: for inhibition of BRS-680 tumor FLI signal: sorafenib 40 mg/kg daily oral gavage
Procedure: In addition, the imager is equipped with suitable excitation and emission filter sets for FLI of BRS-680 and TfV-750. Tumor metabolic activities were visualized by IV injection of a mixture of these two NIR imaging agents (2 nmol/mouse each in a total volume of 100 μl of PBS). The agents were injected 16 h prior to FLI imaging in order to allow optimal probe uptake and clearance of unbound probe. For the longitudinal FLI imaging studies, separate cohorts were used for FLI acquisitions on days 1 (n = 10, imaging agents injected on day 0), 2 (n = 10, injected on day 1), and 3 (n = 5, injected on day 2) due to the extended time required for probe washout. […] Fluorescent signal is represented as radiant efficiency [(p/sec/cm^2/sr)/(μW/cm^2)] or normalized fluorescent signal where appropriate.
as §1, with “SUVtotal. Several similar imaging experiments were performed using this particular HCT116-luc2 tumor model to visualize treatment responses to sorafenib.” for “SUVtotal.”
Besides interfering with glycolytic activity, we believe inhibition of the Ras/Raf/MEK/ERK pathways with sorafenib has a broader, global impact on tumor energy metabolism. […] We wonder if these FLI probes can detect early, yet subtle metabolic disturbances induced by sorafenib treatment prior to the later regression of treated tumors, like we saw with ^18F-FDG PET imaging. […] Separate cohorts were used for FLI acquisitions on days 1, 2, and 3 due to the extended time required for probe washout. Of note, the day 1 cohort was re-injected with probe for imaging on day 10 to assess ultimate treatment efficacy. […]

HT-29 tumors = assay: Biodistribution and in vivo imaging kinetics of the probes in HT-29 tumor-bearing mice; set-up: species or system nu/nu mice
Procedure: (§3) Selectivity was assessed in vitro using HT-29 human colorectal cells; fluorescence signal on BRS-680-labeled cells was ~7X greater than either the scrambled peptide version of the probe or when 100X unlabeled bombesin peptide was used to block labeling (S2 Fig) as assessed by both flow cytometry and fluorescence microscopy. […] Tumor tissue localization co-localized well with ex vivo anti-bombesin receptor staining (S5 Fig).
Selectivity was assessed in vitro by flow cytometry and fluorescence microscopy using HT-29 human colorectal cells; fluorescence signal on TfV-750-labeled cells was ~15X greater than when 100 μM unlabeled recombinant transferrin was used to block labeling (S7 Fig). […] Animals were bled at indicated times, and plasma fluorescence was determined using a microplate assay. […] The probe has good tissue penetration into tumors, as its binding pattern in tumor sections (using a 645 nm FLI surrogate to improve microscopy imaging) correlates well with the transferrin receptor expression on cancer cells and is not associated with the tumor vasculature (S10 Fig).
Blood samples were obtained via terminal cardiac puncture and plasma fluorescence was quantified on a fluorescence plate reader. […] Mice were sacrificed 24 hours post-injection and tissues were excised, rinsed with PBS, and imaged on the FMT 4000 (PerkinElmer, Waltham, MA), in epifluorescence mode. Epifluorescence levels were determined using TrueQuant™ FMT software and are represented as Mean Fluorescence to compensate for differences in tissue size. (TIF) Click here for additional data file.
Noninvasive fluorescence tomographic imaging datasets were used to quantify kinetic fluorescence changes in the tumors, heart, and liver. An optimal imaging time point of 24h was determined based on specificity of tumor signal and tumor’s signal-to-background ratio. (TIF) Click here for additional data file.
B: Quantification of tissue epifluorescence images, with data inset representing plasma pharmacokinetics assessed from serial bleeds of mice measured on a microplate fluorimeter. (TIF) Click here for additional data file.
Elevated TfV-750 signals in the liver and tumor indicate higher iron metabolism in these tissues. (TIF) Click here for additional data file.

[7] = Plasma pharmacokinetics of the probes, fluorescence microplate assay; format: in vivo; conditions: CD-1 mice; 2 nmoles IV; plasma fluorescence on a microplate reader
Procedure: as §3
Selectivity was assessed in vitro by flow cytometry and fluorescence microscopy using HT-29 human colorectal cells; fluorescence signal on TfV-750-labeled cells was ~15X greater than when 100 μM unlabeled recombinant transferrin was used to block labeling (S7 Fig). […] Animals were bled at indicated times, and plasma fluorescence was determined using a microplate assay. […]
Blood samples were obtained via terminal cardiac puncture and plasma fluorescence was quantified on a fluorescence plate reader. […] Epifluorescence levels were determined using TrueQuant™ FMT software and are represented as Mean Fluorescence to compensate for differences in tissue size. […]
B: Quantification of tissue epifluorescence images, with data inset representing plasma pharmacokinetics assessed from serial bleeds of mice measured on a microplate fluorimeter. […]

[8] = sorafenib 40 mg/kg, first 3 days of treatment
[9] = sorafenib 40 mg/kg, within 2 days of treatment, n = 5 per group
[10] = sorafenib 120 mg/kg daily for 8 days, imaged day 9, stated for both FLI probes
[11] = HT-29 tumor-bearing mice, 2 nmol/mouse IV
[12] = HT-29 tumor-bearing nu/nu mice, 2 nmol IV, tissues excised 24 h post-injection, epifluorescence

Compound: CNC(=O)c1cc(Oc2ccc(NC(=O)Nc3ccc(Cl)c(C(F)(F)F)c3)cc2)ccn1 [sorafenib, Sorafenib]
- reduction in BLI signal (HCT116-luc2 tumors [1]; [8]): no significant reduction
- reduction in viability (assessed by BLI) (HCT116-luc2 tumors [1]; [9]): no significant reduction
- BLI and tumor volume results compared with the 120 mg/kg dose (HCT116-luc2 tumors [1]; sorafenib 80 mg/kg daily, days 0-4 and 7-11): Comparable results
- suppression of tumor viability (BLI) (HCT116-luc2 tumors [1]; sorafenib 120 mg/kg daily, days 0-4 and 7-11, by day 11, n = 5 per group): ~ 90%
- reduction in tumor BLI signals (HCT116-luc2 tumors [1]; sorafenib 120 mg/kg, 2 days after the treatment began, n = 5 per group): ~ 40%
- decrease of overt tumor size ([2]; sorafenib 40 mg/kg daily, by day 10, PET study cohort, n = 5 per group): ~ 50%
- growth inhibition in comparison with untreated control tumors ([2]; sorafenib 40 mg/kg, by day 10 or 11, over multiple studies): 50–90%
- reduction in tumor volume [2, 8]: no significant reduction
- reduction in size (tumor volume) [2, 9]: no significant reduction
- efficacy against tumor growth by tumor volume, versus vehicle ([2]; sorafenib 120 mg/kg oral gavage, days 0-4 and 7-9, n = 5 per group): clearly demonstrated the drug’s efficacy
- change in tumor volume ([2]; sorafenib 120 mg/kg, day 2, n = 5 per group): no significant change
- tumor death in H&E stained tumor tissue sections (HCT116-luc2 tumors [3]): extensive tumor death
- inhibition of TfV-750 tumor FLI signal (HCT116-luc2 tumors [4]; sorafenib 40 mg/kg daily oral gavage, day 3, n = 5): 65% and ~ 70%
- reduction in TfV-750 FLI signal as compared to controls (HCT116-luc2 tumors [4]; [10]): ≥ 40%
- inhibition of tumor uptake of 18F-FDG (HCT116-luc2 tumors [5]): 55–60% and 50–60%
- inhibition of BRS-680 tumor FLI signal (HCT116-luc2 tumors [6]; day 2, n = 10): 40%
- inhibition of BRS-680 tumor FLI signal (HCT116-luc2 tumors [6]; day 3, n = 5): 79%
- inhibition of BRS-680 tumor signal (HCT116-luc2 tumors [6]; sorafenib 40 mg/kg, within the 2-3 day window, normalized to vehicle control): 40–80%
- reduction in BRS-680 FLI signal as compared to controls (HCT116-luc2 tumors [6]; [10]): ≥ 40%

Compound: TfV-750: PEGylated recombinant transferrin with a NIR fluorescent reporter (ex/em 750/770 nm); transferrin receptor imaging probe
- optimal time for in vivo tumor imaging post injection (HT-29 tumors; [11]): 6 to 24 h
- time to (near) complete clearance from the system (HT-29 tumors; [11]): about 4 days
- biodistribution to tumors in collected tissues (HT-29 tumors; [12]): good biodistribution to tumors
- route of clearance in collected tissues (HT-29 tumors; [12]): efficient clearance via kidney excretion
- circulation half-life (plasma t1/2) [7]: ~ 9 h
